The text below walks through data of BindingDB's records for doi:10.1021/jm801306g (University of Alberta, 2009).

The target in assay [1] is Trypanothione reductase (Trypanosoma cruzi, UniProt P28593). Description: TryR Enzyme Inhibition Assay. The settings on record: pH 7.5; 22 °C. The procedure: (§1) Inhibition of TryR was carried out in 96-well plates using a Biotek Precision 2000 automated liquid handler. Reaction was initiated by addition of NADPH to the assay mixtures contained TryR , trypanothione disulfide substrate, and inhibitor (100 uM to 10 nM in 3-fold serial dilutions). […] Raw data was processed using Microsoft Excel. Grafit 5.0 (Erithacus software) was used to fit the data to a three-parameter equation to determine IC50 values. IC50 determinations were carried out in triplicate for each compound and the mean weighted to standard error calculated.
Chain of Trypanothione reductase (Trypanosoma cruzi, UniProt P28593) (P28593 whole entry): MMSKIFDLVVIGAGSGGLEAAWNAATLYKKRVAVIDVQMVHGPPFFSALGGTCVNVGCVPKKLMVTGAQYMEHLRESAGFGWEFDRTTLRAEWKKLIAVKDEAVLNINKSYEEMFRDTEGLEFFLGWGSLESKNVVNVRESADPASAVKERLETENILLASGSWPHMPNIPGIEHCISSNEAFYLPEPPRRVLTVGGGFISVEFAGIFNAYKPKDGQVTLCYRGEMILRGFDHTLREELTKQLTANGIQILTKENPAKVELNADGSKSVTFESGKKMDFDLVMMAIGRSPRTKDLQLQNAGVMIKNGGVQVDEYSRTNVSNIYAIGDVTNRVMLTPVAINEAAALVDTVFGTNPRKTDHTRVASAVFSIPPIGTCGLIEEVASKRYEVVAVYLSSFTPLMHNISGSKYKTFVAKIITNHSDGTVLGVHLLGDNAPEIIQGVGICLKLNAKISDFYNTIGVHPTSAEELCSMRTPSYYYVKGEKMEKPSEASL

Assay [2] has as its target Trypanothione reductase (Trypanosoma brucei brucei, UniProt P39051). Briefly: TryR Enzyme Inhibition Assay. The protocol: as §1

Chain of Trypanothione reductase (Trypanosoma brucei brucei, UniProt P39051) (P39051 whole entry): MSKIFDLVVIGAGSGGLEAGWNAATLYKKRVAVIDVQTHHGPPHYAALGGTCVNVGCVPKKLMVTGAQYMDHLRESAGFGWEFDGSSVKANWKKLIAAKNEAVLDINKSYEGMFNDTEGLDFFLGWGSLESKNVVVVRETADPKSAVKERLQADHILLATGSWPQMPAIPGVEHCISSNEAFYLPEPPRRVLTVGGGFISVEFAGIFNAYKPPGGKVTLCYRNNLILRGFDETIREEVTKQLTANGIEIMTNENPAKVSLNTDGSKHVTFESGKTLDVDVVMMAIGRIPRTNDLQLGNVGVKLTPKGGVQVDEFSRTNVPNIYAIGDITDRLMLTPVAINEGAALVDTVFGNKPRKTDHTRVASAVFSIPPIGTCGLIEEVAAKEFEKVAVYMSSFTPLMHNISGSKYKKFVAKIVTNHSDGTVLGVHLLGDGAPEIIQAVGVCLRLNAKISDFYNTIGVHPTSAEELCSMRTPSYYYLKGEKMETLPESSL

As to `C[N+]1(Cc2ccccc2)CCC(NC=C2C(=O)NC(=O)N(C3CCCCC3)C2=O)CC1` (configuration not stated) [1-benzyl-4-[(E)-[(1-cyclohexyl-2,4,6-trioxo-1,3-diazinan-5-yl)methylidene]amino]-1-methylpiperidin-1-ium], the half-inhibitory concentration (IC50) against Trypanothione reductase [1] was 45.2 µM; at Trypanothione reductase [2], greater than 100 µM.
